# ChEMBL document CHEMBL4359869, “A new GSH-responsive prodrug of 5-aminolevulinic acid for photodiagnosis and photodynamic therapy of tumors” (Eur J Med Chem, 2019)
# Active and inactive are the calls of the source. No cut-off for these calls is given here.
# Assays:
# [1] = Chemical stability of the compound in buffer at 1M at pH 4 by HPLC analysis; type: physicochemical
# [2] = Chemical stability of the compound in buffer at 1M at pH 7.4 by HPLC analysis; type: physicochemical
# [3] = Chemical stability of the compound in buffer at 1M at pH 9 by HPLC analysis; type: physicochemical
# [4] = Prodrug activation in human HeLa cells assessed as increase in GSH-mediated PpIX production at 10 to 300 uM incubated for 4 hrs by fluorescence based assay; type: cell-based
# [5] = Prodrug activation in human HeLa cells assessed as increase in GSH-mediated PpIX production at 300 uM incubated for 4 hrs by fluorescence based assay; type: cell-based
# [6] = Prodrug activation in human HeLa cells assessed as increase in GSH-mediated PpIX production at 100 uM incubated for 4 hrs by fluorescence imaging analysis; type: cell-based
# HeLa [7] = experiment: Photosensitization activity against human HeLa cells assessed as reduction in cell viability incubated for 4 hrs followed by LED light array irradiation followed by further incubation for 24 hrs by MTT assay; type: functional, cell-based; conditions: light or radiation study
# HeLa [8] = experiment: Photosensitization activity against human HeLa cells assessed as cell viability at 100 uM incubated for 4 hrs followed by LED light array irradiation followed by further incubation for 24 hrs by MTT assay; type: functional
# HCT-116 [9] = experiment: Photosensitization activity against human HCT116 cells assessed as cell viability at 100 uM incubated for 4 hrs followed by LED light array irradiation followed by further incubation for 24 hrs by MTT assay; type: functional; conditions: HCT-116, light or radiation study, read-out: Activity
# A549 [10] = experiment: Photosensitization activity against human A549 cells assessed as cell viability at 100 uM incubated for 4 hrs followed by LED light array irradiation followed by further incubation for 24 hrs by MTT assay; type: functional; conditions: A549, light or radiation study, read-out: Activity
# A-375 [11] = experiment: Photosensitization activity against human A375 cells assessed as cell viability at 100 uM incubated for 4 hrs followed by LED light array irradiation followed by further incubation for 24 hrs by MTT assay; type: functional; conditions: A-375, light or radiation study, read-out: Activity
# [12] = n-octanol/water partition coefficient, log P of the compound at 1M incubated for 0.5 hrs by HPLC analysis; type: physicochemical
# HeLa [13] = experiment: Cytotoxicity against human HeLa cells assessed as cell viability at 10 to 1000 uM incubated for 4 hrs measured under dark conditions by MTT assay; type: cell-based
# [14] = Prodrug activation in human HCT116 cells assessed as increase in GSH-mediated PpIX production at 100 to 300 uM incubated for 4 hrs by fluorescence based assay; type: cell-based; conditions: hct-116, 4 h
# [15] = Prodrug activation in human A549 cells assessed as increase in GSH-mediated PpIX production at 100 to 300 uM incubated for 4 hrs by fluorescence based assay; type: cell-based; conditions: a549, 4 h
# [16] = Prodrug activation in human A375 cells assessed as increase in GSH-mediated PpIX production at 100 to 300 uM incubated for 4 hrs by fluorescence based assay; type: cell-based; conditions: a-375, 4 h
# [17] = Prodrug activation in human HeLa cells assessed as increase in GSH-mediated PpIX production at 1000 uM incubated for 4 hrs by fluorescence based assay; type: cell-based
# [18] = Prodrug activation in human HeLa cells assessed as increase in GSH-mediated PpIX production at 100 uM incubated for 4 hrs pretreated for 1 hr with 1 mM intracellular GSH depletor, DEM by fluorescence imaging analysis; type: cell-based
# [19] = Chemical stability of the compound in buffer at 1 M at pH 4 to 9 measured after 24 hrs by HPLC analysis; type: physicochemical; conditions: pH 4, 24 h
# [20] = Prodrug activation in PBS buffer assessed as GSH-mediated cleaved product C-SA formation at 0.5 mM incubated for 1 hr measured at 37 degC and pH 7.4 in presence of 10 mM GSH by ESI-MS spectrometry; conditions: pH 7.4, 1 h, 500 µM
# [21] = Prodrug activation in human HeLa cells assessed as increase in GSH-mediated PpIX production at 100 uM incubated for 4 hrs by fluorescence based assay relative to 5-ALA; type: cell-based
# [22] = Prodrug activation in human HeLa cells assessed as increase in GSH-mediated PpIX production at 100 uM incubated for 4 hrs by fluorescence based assay relative to 5-ALA-OMe; type: cell-based
# HeLa [23] = experiment: Cytotoxicity against human HeLa cells assessed as reduction in cell viability at 10 to 300 uM incubated for 4 hrs measured under dark conditions by MTT assay; type: cell-based
# HeLa [24] = experiment: Cytotoxicity against human HeLa cells assessed as reduction in cell viability at 300 to 1000 uM incubated for 4 hrs measured under dark conditions by MTT assay; type: cell-based
# [25] = Prodrug activation in human HCT116 cells assessed as increase in GSH-mediated PpIX production at 100 uM incubated for 4 hrs by fluorescence based assay relative to 5-ALA-OMe; type: cell-based; conditions: hct-116, 4 h
# [26] = Prodrug activation in human A549 cells assessed as increase in GSH-mediated PpIX production at 100 uM incubated for 4 hrs by fluorescence based assay relative to 5-ALA-OMe; type: cell-based; conditions: a549, 4 h
# [27] = Prodrug activation in human A375 cells assessed as increase in GSH-mediated PpIX production at 100 uM incubated for 4 hrs by fluorescence based assay relative to 5-ALA-OMe; type: cell-based; conditions: a-375, 4 h
# [28] = Prodrug activation in human HCT116 cells assessed as increase in GSH-mediated PpIX production at 500 to 1000 uM incubated for 4 hrs by fluorescence based assay; type: cell-based; conditions: hct-116, 4 h
# [29] = Prodrug activation in human A549 cells assessed as increase in GSH-mediated PpIX production at 500 to 1000 uM incubated for 4 hrs by fluorescence based assay; type: cell-based; conditions: a549, 4 h
# [30] = Prodrug activation in human A375 cells assessed as increase in GSH-mediated PpIX production at 500 to 1000 uM incubated for 4 hrs by fluorescence based assay; type: cell-based; conditions: a-375, 4 h
# [31] = Prodrug activation in human HCT116 cells assessed as increase in GSH-mediated PpIX production at 100 uM incubated for 4 hrs by fluorescence based assay relative to 5-ALA; type: cell-based; conditions: hct-116, 4 h
# [32] = Prodrug activation in human A549 cells assessed as increase in GSH-mediated PpIX production at 100 uM incubated for 4 hrs by fluorescence based assay relative to 5-ALA; type: cell-based; conditions: a549, 4 h
# [33] = Prodrug activation in human A375 cells assessed as increase in GSH-mediated PpIX production at 100 uM incubated for 4 hrs by fluorescence based assay relative to 5-ALA; type: cell-based; conditions: a-375, 4 h
# [34] = Prodrug activation in human HeLa cells assessed as increase in GSH-mediated PpIX production at 300 to 1000 uM incubated for 4 hrs by fluorescence based assay; type: cell-based
# HeLa [35] = experiment: Potency index, ratio of 5-ALA IC50 to compound IC50 for photosensitization activity against human HeLa cells by MTT assay; type: functional
# HeLa [36] = experiment: Potency index, ratio of 5-ALA-OMe IC50 to compound IC50 for photosensitization activity against human HeLa cells by MTT assay; type: functional
# HCT-116 [37] = experiment: Cytotoxicity against human HCT116 cells assessed as reduction in cell viability at 500 to 1000 uM incubated for 4 hrs measured under dark conditions by MTT assay; type: cell-based; conditions: hct-116, 4 h
# A549 [38] = experiment: Cytotoxicity against human A549 cells assessed as reduction in cell viability at 500 to 1000 uM incubated for 4 hrs measured under dark conditions by MTT assay; type: cell-based; conditions: a549, 4 h
# A-375 [39] = experiment: Cytotoxicity against human A375 cells assessed as reduction in cell viability at 500 to 1000 uM incubated for 4 hrs measured under dark conditions by MTT assay; type: cell-based; conditions: a-375, 4 h
# [40] = Prodrug activation in human HeLa cells assessed as GSH-mediated PpIX production at 10 to 1000 uM incubated for 4 hrs by fluorescence based assay; type: cell-based
# HeLa [41] = experiment: Cytotoxicity against human HeLa cells assessed as cell viability at 10 to 1000 uM incubated for 4 hrs followed by LED light array irradiation followed by further incubation for 24 hrs by MTT assay; type: functional, cell-based
# HCT-116 [42] = experiment: Cytotoxicity against human HCT116 cells assessed as reduction in cell viability incubated for 4 hrs followed by LED light array irradiation followed by further incubation for 24 hrs by MTT assay; type: functional, cell-based
# A549 [43] = experiment: Cytotoxicity against human A549 cells assessed as reduction in cell viability incubated for 4 hrs followed by LED light array irradiation followed by further incubation for 24 hrs by MTT assay; type: functional, cell-based
# A-375 [44] = experiment: Cytotoxicity against human A375 cells assessed as reduction in cell viability incubated for 4 hrs followed by LED light array irradiation followed by further incubation for 24 hrs by MTT assay; type: functional, cell-based
compound,measurement,setting,value
NCC(=O)CCC(=O)O [AMINOLEVULINIC ACID],Stability,[1],Stable
same,Stability,[2],Unstable
same,Stability,[3],Unstable
same,Drug metabolism,[4],Metabolite_Detected
same,Drug metabolism,[5],Metabolite_Detected
same,Drug metabolism,[6],Metabolite_Notdetected
same,IC50,HeLa [7],230 µM
same,Activity,HeLa [8],inactive
same,viability at 100 µM,HCT-116 [9],> 80%
same,viability at 100 µM,A549 [10],> 80%
same,viability at 100 µM,A-375 [11],60%
same,logP at 0.5 h,[12],-1.52
same,Activity,HeLa [13],Non-Toxic
same,Drug metabolism,[14],Metabolite_Detected
same,Drug metabolism,[15],Metabolite_Detected
same,Drug metabolism,[16],Metabolite_Detected
COC(=O)CCC(=O)CN [METHYL AMINOLEVULINATE],Stability,[1],Stable
same,Stability,[2],Unstable
same,Stability,[3],Unstable
same,Drug metabolism,[4],Metabolite_Detected
same,Drug metabolism,[17],Metabolite_Detected
same,Drug metabolism,[6],Metabolite_Notdetected
same,IC50,HeLa [7],763 µM
same,Activity,HeLa [8],inactive
same,viability at 100 µM,HCT-116 [9],> 80%
same,viability at 100 µM,A549 [10],> 80%
same,viability at 100 µM,A-375 [11],> 80%
same,logP at 0.5 h,[12],-0.94
same,Activity,HeLa [13],Non-Toxic
same,Drug metabolism,[14],Metabolite_Detected
same,Drug metabolism,[15],Metabolite_Detected
same,Drug metabolism,[16],Metabolite_Detected
COC(=O)CCC(=O)CNC(=O)OCCSSCCOC(=O)NCC(=O)CCC(=O)OC,Drug metabolism,[18],Metabolite_Detected
same,Stability,[1],Stable
same,Stability,[2],Stable
same,Stability,[3],Stable
same,Stability,[19],Stable
same,Drug metabolism,[20],Metabolite_Detected
same,Drug metabolism,[4],Metabolite_Detected
same,fold change (FC),[21],20
same,fold change (FC),[22],70
same,Drug metabolism,[6],Metabolite_Detected
same,Activity,HeLa [23],Toxic
same,Activity,HeLa [24],Toxic
same,IC50,HeLa [7],62 µM
same,viability at 100 µM,"HeLa [8]; light or radiation study, read-out: Activity",30%
same,fold change (FC),[25],28
same,fold change (FC),[26],84
same,fold change (FC),[27],43
same,Drug metabolism,[28],Metabolite_Detected
same,Drug metabolism,[29],Metabolite_Detected
same,Drug metabolism,[30],Metabolite_Detected
same,viability at 100 µM,HCT-116 [9],13%
same,viability at 100 µM,A549 [10],16%
same,viability at 100 µM,A-375 [11],14%
same,fold change (FC),[31],3 to 40
same,fold change (FC),[32],3 to 40
same,fold change (FC),[33],3 to 40
same,logP at 0.5 h,[12],0.84
same,Drug metabolism,[34],Metabolite_Detected
same,Ratio IC50,HeLa [35],4
same,Ratio IC50,HeLa [36],12
same,Drug metabolism,[14],Metabolite_Detected
same,Drug metabolism,[15],Metabolite_Detected
same,Drug metabolism,[16],Metabolite_Detected
same,Activity,HCT-116 [37],Toxic
same,Activity,A549 [38],Toxic
same,Activity,A-375 [39],Toxic
COC(=O)CCC(=O)CNC(=O)OCCCCCCOC(=O)NCC(=O)CCC(=O)OC,Drug metabolism,[40],Metabolite_Notdetected
same,Drug metabolism,[6],Metabolite_Notdetected
same,Activity,HeLa [13],Non-Toxic
same,inhibition,HeLa [41],inactive
same,inhibition,HCT-116 [42],inactive
same,inhibition,A549 [43],inactive
same,inhibition,A-375 [44],inactive
